Results: US20160058006A1, “COMPOSITIONS AND METHODS FOR ATTRACTING STINK BUGS” (BEDOUKIAN RESEARCH, INC., priority 2014, published 2016)

Tests used:
[1] = test system: brown marmorated stink bug; conditions: cited from earlier work
[2] = test system: individual sensillum (olfactory receptor neurons) on the brown marmorated stink bug antenna; assay: electrophysiological recording from an individual antennal sensillum in response to an olfactory stimulus; parameters: species or system Halyomorpha halys; conditions: 2 second stimulus, 100 μg dosage load in ethanol, versus 2 second control stimulus; FIG. 3
Source text: Many aspects of insect behavior are mediated by olfactory signals. These olfactory signals are detected by sensory structures called sensilla which are innervated by olfactory receptor neurons and are located on various parts of the insect body including the antenna, mouthparts and tarsi. It is possible to determine the capabilities of the peripheral sensory system by using electrophysiology methods. Basically, extracellular neural responses from the individual receptor neurons located in the sensilla on the antenna of the stinkbug can be electrically recorded in response to stimulation with various concentrations of olfactory odorants.
Details of the recording methodology for insects have been described previously. […] The action potentials within this sensillum can then be monitored and recorded. […] Electrical signals obtained from the neurons within the sensillum are band-passed filtered (300-3K Hz), amplified (1000×) and analyzed using commercial software, Autospike (Syntech, Hilversum, The Netherlands). […]
FIG. 3 represents screen shots of the analysis of the above trace (FIG. 2) from the software that used to analyze the electrophysiological data. […] In the histograms, each bar represents the number of impulses calculated for a metric of impulse size.

CCC\C=C/C=C/C=C/C(=O)OC [methyl (2E,4E,6Z)-decatrienoate]
attraction by itself ([1]; early season trials): not attractive by itself | cross-attraction of the brown marmorated stink bug ([1]; in vivo): cross-attractive | attraction of adults ([1]; late in the season): reliably attracted

ethyl (2E,4E,6Z)-decatrienoate
number of impulses (activity) in stimulus histogram compared to control histogram [2]: more activity in the bottom stimulus histogram as compared to the top control histogram
